Data on 18 compounds can be found in patent publication US20260207565A1, “COMPOUNDS THAT INHIBIT PKMYT1” (Exelixis, Inc., priority 2022, published 2026).

Experiment [1] relates to phosphorylation of CDK1 at Thr14 in HCC1806 cells. The experiment is described as follows: Cell lysate AlphaLISA assay measuring inhibition of phosphorylation of CDK1 Thr14. Format: cell-based. The settings on record: compounds incubated 4 hours, AlphaLISA SureFire Ultra CDK1 Thr14, read-out: Cellular IC50. In a few lines:
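HCC1806 cells treated with compound for 4 h at 37 °C, lysed, and phospho-CDK1 Thr14 quantified by AlphaLISA SureFire Ultra. Data normalized to DMSO (0% inhibition) and 3 μM reference compound; IC50 derived.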
A general note: Alpha assays give light when donor and acceptor beads are brought close together.

The target in experiment [2] is T1, PKMYT1 (Homo sapiens, UniProt Q99640).
T1 construct: PKMYT1 (93 kD, full length, N-terminal GST tag from Signal Chem); GST (N); purchased Signal Chem
T1 sequence (Q99640 1-499): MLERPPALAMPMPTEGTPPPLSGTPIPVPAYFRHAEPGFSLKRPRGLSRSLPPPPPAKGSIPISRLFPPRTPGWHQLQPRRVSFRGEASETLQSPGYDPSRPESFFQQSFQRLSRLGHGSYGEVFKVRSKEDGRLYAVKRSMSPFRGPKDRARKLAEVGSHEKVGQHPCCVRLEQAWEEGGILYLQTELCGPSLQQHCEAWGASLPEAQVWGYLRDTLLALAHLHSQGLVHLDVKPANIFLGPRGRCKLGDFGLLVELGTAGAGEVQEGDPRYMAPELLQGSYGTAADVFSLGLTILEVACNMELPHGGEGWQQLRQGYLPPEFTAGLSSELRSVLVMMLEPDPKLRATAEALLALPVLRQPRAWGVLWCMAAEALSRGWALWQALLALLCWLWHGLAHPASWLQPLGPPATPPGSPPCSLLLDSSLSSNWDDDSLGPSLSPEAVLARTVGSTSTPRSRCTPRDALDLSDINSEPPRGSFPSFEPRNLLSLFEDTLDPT
The experiment is described as follows: ADP-Glo PKMYT1 ATP-depletion assay. Conditions: 50 nM PKMYT1, 13.3 nM CDK1, 88 μM ATP, 120 minutes at RT, read-out: Biochemical IC50. The gist of the method:
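Full-length N-GST PKMYT1 (50 nM) incubated 120 min at RT with full-length GST-CDK1 (13.3 nM) and 88 μM ATP in Hepes buffer containing Mg2+, Mn2+, DTT and BSA; DMSO <10%. ADP formed was converted via ADP-Glo to luminescence; IC50 derived.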

Where two headings read alike, the source gives them in different places.

By IC50 is commonly meant the concentration at which inhibition is half-maximal.

In the case of `CCn1cc(C#N)c2c(-c3cccc(O)c3C)c(N)c(C(N)=O)nc21` (atropisomer, axis not shown; (M)) [Compound 92, (M)-5-amino-3-cyano-1-ethyl-4-(3-hydroxy-2-methylphenyl)-1H-pyrrolo[2,3-b]pyridine-6-carboxamide], the IC50 is less than 50 nM in experiment [1] (Homo sapiens, HCC1806, 4 h) and less than 50 nM in experiment [2].

Consider `Cc1ccc(O)c(C)c1-c1c(N)c(C(N)=O)cc2c1nc(C)n2C` [Compound 15, 5-amino-4-(3-hydroxy-2,6-dimethylphenyl)-1,2-dimethyl-1H-benzo[d]imidazole-6-carboxamide], for which the IC50 is 500 to 1000 nM in experiment [1] (Homo sapiens, HCC1806, 4 h) and less than 50 nM in experiment [2].

With `CCn1cc(C(N)=O)c2c(-c3c(C)ccc(O)c3C)c(N)c(C(N)=O)nc21` (atropisomer, axis not shown; (M)) [Compound 76, (M)-5-Amino-1-ethyl-4-(3-hydroxy-2,6-dimethylphenyl)-1H-pyrrolo[2,3-b]pyridine-3,6-dicarboxamide], the concentration for half-maximal inhibition (IC50) was less than 50 nM in experiment [1] (Homo sapiens, HCC1806, 4 h) and less than 50 nM in experiment [2].

Consider `Cc1cn2cc(C(N)=O)c(N)c(-c3cccc(O)c3C)c2n1` [Compound 47, 7-Amino-8-(3-hydroxy-2-methylphenyl)-2-methylimidazo[1,2-a]pyridine-6-carboxamide], for which the concentration for half-maximal inhibition (IC50) in experiment [1] (Homo sapiens, HCC1806, 4 h) is not below 5000 nM; in experiment [2], 50 to 500 nM.

For `Cc1ccc(O)c(C)c1-c1cc(C(N)=O)nc2c1cnn2C` [Compound 17, 4-(3-hydroxy-2,6-dimethylphenyl)-1-methyl-pyrazolo[3,4-b]pyridine-6-carboxamide], the IC50 was not below 5000 nM in experiment [1] (Homo sapiens, HCC1806, 4 h) and 1000 to 5000 nM in experiment [2].

With `CCn1cc(C(N)=O)c2c(-c3cccc(O)c3C)c(N)c(C(N)=O)nc21` (atropisomer, axis not shown; (M)) [Compound 96, (M)-5-amino-1-ethyl-4-(3-hydroxy-2-methylphenyl)-1H-pyrrolo[2,3-b]pyridine-3,6-dicarboxamide], the IC50 in experiment [1] (Homo sapiens, HCC1806, 4 h) is less than 50 nM; in experiment [2], less than 50 nM.

With `Cc1c(O)cccc1-c1c(N)c(C(N)=O)cn2c(C)nnc12` (single isomer, unassigned) [Compound 53, (M)-7-amino-8-(3-hydroxy-2-methylphenyl)-3-methyl-[1,2,4]triazolo[4,3-a]pyridine-6-carboxamide], the IC50 in experiment [1] and in experiment [2] was not below 5000 nM in each case.

With `CCn1cc(-c2cn[nH]c2)c2c(-c3c(C)ccc(O)c3C)cc(C(N)=O)nc21` (single isomer, unassigned) [Compound 69, (P)-1-Ethyl-4-(3-hydroxy-2,6-dimethylphenyl)-3-(1H-pyrazol-4-yl)-1H-pyrrolo[2,3-b]pyridine-6-carboxamide], the 50% inhibitory concentration (IC50) was less than 50 nM in experiment [1] (Homo sapiens, HCC1806, 4 h) and less than 50 nM in experiment [2].

Consider `CCn1cc(C#N)c2c(-c3c(C)ccc(O)c3C)cc(C(N)=O)nc21` [Compound 29, 3-cyano-1-ethyl-4-(3-hydroxy-2,6-dimethylphenyl)pyrrolo[2,3-b]pyridine-6-carboxamide], for which the half-maximal inhibitory concentration (IC50) in experiment [1] (Homo sapiens, HCC1806, 4 h) is less than 50 nM; in experiment [2] it was less than 50 nM.

Consider `Cc1c(O)cccc1-c1c(N)c(C(N)=O)nc2c1c(C#N)cn2-c1ncccc1F` (atropisomer, axis not shown; (M)) [Compound 78, (M)-5-Amino-3-cyano-1-(3-fluoropyridin-2-yl)-4-(3-hydroxy-2-methylphenyl)-1H-pyrrolo[2,3-b]pyridine-6-carboxamide], for which the IC50 in experiment [1] (Homo sapiens, HCC1806, 4 h) is less than 50 nM; in experiment [2], less than 50 nM.

`Cc1ccc(O)c(C)c1-c1c(N)c(C(N)=O)nc2c1ncn2C` (single isomer, unassigned) [Compound 3, (M)-6-amino-7-(3-hydroxy-2,6-dimethylphenyl)-3-methyl-3H-imidazo[4,5-b]pyridine-5-carboxamide]: the IC50 was not below 5000 nM in experiment [1] and 1000 to 5000 nM in experiment [2].

With `CCn1cc(C#N)c2c(-c3c(C)ccc(O)c3C)cc(C(N)=O)nc21` (single isomer, unassigned) [Compound 79], the IC50 in experiment [1] (Homo sapiens, HCC1806, 4 h) was less than 50 nM; in experiment [2] it was less than 50 nM.

Regarding `Cc1c(O)cccc1-c1c(N)c(C(N)=O)nc2c1c(C#N)nn2C` (single isomer, unassigned) [Compound 58, (M)-5-Amino-3-cyano-4-(3-hydroxy-2-methylphenyl)-1-methyl-1H-pyrazolo[3,4-b]pyridine-6-carboxamide], the IC50 in experiment [1] is 50 to 500 nM; in experiment [2], less than 50 nM.

As for `Cc1ccc(O)c(C)c1-c1cc(C(N)=O)nc2c1c(C#N)cn2-c1ncccc1F` (atropisomer, axis not shown; (P)) [Compound 68, (P)-3-Cyano-1-(3-fluoropyridin-2-yl)-4-(3-hydroxy-2,6-dimethylphenyl)-1H-pyrrolo[2,3-b]pyridine-6-carboxamide], the IC50 in experiment [1] (Homo sapiens, HCC1806, 4 h) is less than 50 nM; in experiment [2] it was less than 50 nM.

`Cc1ccc(O)c(C)c1-c1c(N)c(C(N)=O)nc2c1ncn2C(C)C` (single isomer, unassigned) [Compound 83, (P)-6-amino-7-(3-hydroxy-2,6-dimethylphenyl)-3-isopropyl-3H-imidazo[4,5-b]pyridine-5-carboxamide]: the IC50 in experiment [1] (Homo sapiens, HCC1806, 4 h) was less than 50 nM; in experiment [2], less than 50 nM.

As to `CNC(=O)c1cc(-c2c(C)ccc(O)c2C)c2[nH]ncc2c1` [Compound 38], the half-maximal inhibitory concentration (IC50) is 1000 to 5000 nM in experiment [1] (Homo sapiens, HCC1806, 4 h) and not below 5000 nM in experiment [2].

As for `Cc1c(O)cccc1-c1c(N)c(C(N)=O)nc2c1c(C#N)c(C)n2CC(F)(F)F` [Compound 14], the IC50 in experiment [1] (Homo sapiens, HCC1806, 4 h) is less than 50 nM; in experiment [2], less than 50 nM.

For the compound `Cc1c(O)cccc1-c1c(N)c(C(N)=O)nc2c1cnn2C` [Compound 56, 5-Amino-4-(3-hydroxy-2-methylphenyl)-1-methyl-pyrazolo[3,4-b]pyridine-6-carboxamide], the IC50 is not below 5000 nM in experiment [1] (Homo sapiens, HCC1806, 4 h) and 50 to 500 nM in experiment [2].
